Assay results published in EP3722296B1, “DIHYDRONAPHTHYRIDINES AND RELATED COMPOUNDS USEFUL AS KINASE INHIBITORS FOR THE TREATMENT OF PROLIFERATIVE DISEASES” (Deciphera Pharmaceuticals, LLC, priority 2012, dated 2013).
One block for each compound: values may come before it.

What was measured:
[1] = target: T1, c-KIT V654A kinase (Homo sapiens, UniProt P10721, V654A); test: c-KIT V654A Kinase Assay; assay type: biochemical; details: enzymatic assay, ATP 200 µM
T1 construct: residues T544-V976 with N-terminal GST fusion; purchased deCODE Biostructures
T1 sequence (P10721 544-976 V654A): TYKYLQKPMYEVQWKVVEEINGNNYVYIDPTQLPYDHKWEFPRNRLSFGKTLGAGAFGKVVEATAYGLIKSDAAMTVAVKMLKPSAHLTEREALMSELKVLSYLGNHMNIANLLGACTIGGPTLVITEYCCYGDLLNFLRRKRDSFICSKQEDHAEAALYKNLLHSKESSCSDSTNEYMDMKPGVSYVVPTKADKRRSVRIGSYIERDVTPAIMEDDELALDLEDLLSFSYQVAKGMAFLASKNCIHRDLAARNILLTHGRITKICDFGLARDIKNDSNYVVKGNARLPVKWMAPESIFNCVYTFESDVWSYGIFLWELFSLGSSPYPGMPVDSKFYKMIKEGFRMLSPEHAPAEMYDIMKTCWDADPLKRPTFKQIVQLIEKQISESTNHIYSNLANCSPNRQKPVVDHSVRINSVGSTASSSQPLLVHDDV
Summary of the method: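 Kinase activity tracked by coupled NADH consumption, monitored continuously at 340 nm over 6 h at 30 °C after serially diluted compound was mixed in to start inhibition. Enzyme used was a GST-fused, N-terminally tagged cKIT T544–V976 construct with a TEV cleavage site.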

[2] = target: T2, c-KIT D816H kinase (Homo sapiens, UniProt P10721, D816H); test: c-KIT D816H Kinase Assay; assay type: biochemical; details: enzymatic assay, ATP 200 µM
T2 construct: The construct contains residues T544-V976 of cKit; GST (N); TEV cleavage site (internal); purchased deCODE Biostructures
T2 sequence (P10721 544-976 D816H): as the sequence (P10721 544-976 V654A) above, with A111V, D273H counted along it
Summary of the method: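 Mutant cKit enzyme, expressed as a GST-fusion construct carrying an N-terminal tag and TEV site, was mixed with serially diluted compound to start reactions. Activity tracked via NADH consumption, read continuously at 340 nm over 6 hours at 30 °C.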

[3] = target: T3, c-KIT D816V kinase (Homo sapiens, UniProt P10721, D816V); test: c-KIT D816V kinase Assay; assay type: biochemical; details: enzymatic assay, ATP 200 uM
T3 construct: residues T544-V976 with N-terminal GST fusion; purchased deCODE Biostructures
T3 sequence (P10721 544-976 D816V): as the sequence (P10721 544-976 V654A) above, with A111V, D273V counted along it
Summary of the method: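 Coupled assay in which NADH oxidation was tracked as decreasing absorbance at 340 nm, continuously for 5 hours at 30 °C after adding serially diluted compound. Enzyme: cKit residues T544-V976 with N-terminal tag, GST fusion and TEV cleavage site.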

[4] = target: T4, c-KIT T670I kinase (Homo sapiens, UniProt P10721, T670I); test: c-KIT T670I kinase assay; assay type: biochemical; details: enzymatic assay
T4 construct: The construct contains residues T544-V976 of cKit; GST (N); TEV cleavage site (internal); purchased deCODE Biostructures
T4 sequence (P10721 544-976 T670I): as the sequence (P10721 544-976 V654A) above, with A111V, T127I counted along it
Summary of the method: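 Enzyme: GST-fused, N-terminally tagged cKit bearing T670I, with TEV cleavage site. Reaction started by mixing compound dilutions with reaction mix; activity read continuously over 5 h at 30 °C as loss of 340 nm absorbance from NADH consumption.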

[5] = tested on: Phospho-KIT (Tyr719); test: GIST48 KIT Western Blot; assay type: cell-based; details: GIST48 cells, 4 hours, serum-free medium; read-out: pKIT suppression by western blot analysi GIST48
Summary of the method: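 Phospho-KIT (Tyr719) was immunoblotted on PVDF and imaged in fluorescence mode after ECL Plus, with stripping and reprobing for total KIT. IC50 values were derived from the blot signals.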

[6] = target: c-KIT kinase (Homo sapiens, UniProt P10721); test: c-KIT kinase Assay; assay type: biochemical; design: cKIT residues T544-V976; GST (N); TEV cleavage site (internal); purchased deCODE Biostructures; details: enzymatic assay, ATP 200 µM; read-out: KIT (wt) IC50
Sequence of c-KIT kinase (P10721 544-976): as the sequence (P10721 544-976 V654A) above, with A111V counted along it
Summary of the method: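 This continuous spectrophotometric assay tracked c-KIT kinase turnover through NADH consumption at 340 nm, recorded for 2 hours at 30 °C. The enzyme construct from deCODE Biostructures carried an N-terminal tag, a GST-fusion sequence and a TEV cleavage site. Percent inhibition came from reaction rates over 0 to 1 h relative to a no-compound control, and IC50 values were derived with GraphPad Prism.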

Compound: CCn1c(=O)c(-c2cc(NC(=O)Nc3cccc(F)c3F)c(F)cc2Cl)cc2cnc(NC)cc21 [Example 4, 1-(4-chloro-5-(1-ethyl-7-(methylamino)-2-oxo-1,2-dihydro-1,6-naphthyridin-3-yl)-2-fluorophenyl)-3-(2,3-difluorophenyl)urea]
IC50 [1]: < 10 nM
IC50 [2]: < 10 nM
IC50 [3]: 10 to 100 nM
IC50 [4]: 10 to 100 nM
IC50 [5]: 10 to 100 nM
IC50 [6]: < 10 nM

Compound: CNc1cc2c(cn1)cc(-c1cc(NC(=O)Nc3ccccc3)c(F)cc1Cl)c(=O)n2C(C)C [Example 22, 1-(4-chloro-2-fluoro-5-(1-isopropyl-7-(methylamino)-2-oxo-1,2-dihydro-1,6-naphthyridin-3-yl)phenyl)-3-phenylurea]
IC50 [1]: 10 to 100 nM
IC50 [2]: 10 to 100 nM
IC50 [3]: < 10 nM
IC50 [4]: 100 to 1000 nM
IC50 [5]: 10 to 100 nM
IC50 [6]: < 10 nM

Compound: CCn1c(=O)c(-c2cc(NC(=O)Nc3ccccc3)c(F)cc2Cl)cc2cnc(NC(C)=O)cc21 [Example 54, 1-(5-(7-acetamido-1-ethyl-2-oxo-1,2-dihydro-1,6-naphthyridin-3-yl)-4-chloro-2-fluorophenyl)-3-phenylurea]
IC50 [1]: 10 to 100 nM
IC50 [2]: < 10 nM
IC50 [3]: < 10 nM
IC50 [4]: 10 to 100 nM
IC50 [5]: 10 to 100 nM
IC50 [6]: < 10 nM

Compound: CCn1c(=O)c(-c2cc(NC(=O)Nc3ccccc3F)c(F)cc2Cl)cc2cnc(NC)cc21 [Example 25, 1-[4-chloro-5-(1-ethyl-7-methylamino-2-oxo-1,2-dihydro-[1,6]naphthyridin-3-yl)-2-fluoro-phenyl]-3-(2-fluoro-phenyl)-urea]
IC50 [1]: < 10 nM
IC50 [2]: 10 to 100 nM
IC50 [3]: 10 to 100 nM
IC50 [4]: < 10 nM
IC50 [5]: 10 to 100 nM
IC50 [6]: < 10 nM

Compound: CCn1c(=O)c(-c2cc(NC(=O)Nc3cccc(F)c3)c(F)cc2Br)cc2cnc(NC)cc21 [Example 50, 1-(4-bromo-5-(1-ethyl-7-(methylamino)-2-oxo-1,2-dihydro-1,6-naphthyridin-3-yl)-2-fluorophenyl)-3-(3-fluorophenyl)urea]
IC50 [1]: 10 to 100 nM
IC50 [2]: 10 to 100 nM
IC50 [3]: 10 to 100 nM
IC50 [4]: 10 to 100 nM
IC50 [5]: 100 to 1000 nM
IC50 [6]: < 10 nM

Compound: CCn1c(=O)c(-c2cc(NC(=O)Nc3cccc4ccccc34)c(F)cc2Cl)cc2cnc(NC)cc21 [Example 6, 1-(4-chloro-5-(1-ethyl-7-(methylamino)-2-oxo-1,2-dihydro-1,6-naphthyridin-3-yl)-2-fluorophenyl)-3-(naphthalen-1-yl)urea]
IC50 [1]: 10 to 100 nM
IC50 [2]: 10 to 100 nM
IC50 [3]: 10 to 100 nM
IC50 [4]: < 10 nM
IC50 [5]: < 10 nM
IC50 [6]: < 10 nM

Compound: CCn1c(=O)c(-c2cc(NC(=O)Nc3csc4ccccc34)c(F)cc2Cl)cc2cnc(NC)cc21 [Example 32, 1-(benzo[b]thiophen-3-yl)-3-(4-chloro-5-(1-ethyl-7-(methylamino)-2-oxo-1,2-dihydro-1,6-naphthyridin-3-yl)-2-fluorophenyl)urea]
IC50 [1]: 10 to 100 nM
IC50 [2]: < 10 nM
IC50 [3]: < 10 nM
IC50 [4]: 10 to 100 nM
IC50 [5]: < 10 nM
IC50 [6]: < 10 nM

Compound: CCn1c(=O)c(-c2cc(NC(=O)Nc3cccc(F)c3)c(F)cc2Cl)cc2cnc(NC)cc21 [Example 24, 1-[4-chloro-5-(1-ethyl-7-methylamino-2-oxo-1,2-dihydro-[1,6]naphthyridin-3-yl)-2-fluoro-phenyl]-3-(3-fluoro-phenyl)-urea]
IC50 [1]: < 10 nM
IC50 [2]: < 10 nM
IC50 [3]: < 10 nM
IC50 [4]: < 10 nM
IC50 [5]: 10 to 100 nM
IC50 [6]: < 10 nM

Compound: CCn1c(=O)c(-c2cc(NC(=O)Nc3cccc(F)c3)c(F)cc2C)cc2cnc(NC)cc21 [Example 44, 1-(5-(1-ethyl-7-(methylamino)-2-oxo-1,2-dihydro-1,6-naphthyridin-3-yl)-2-fluoro-4-methylphenyl)-3-(3-fluorophenyl)urea]
IC50 [1]: 10 to 100 nM
IC50 [2]: < 10 nM
IC50 [3]: 10 to 100 nM
IC50 [4]: 10 to 100 nM
IC50 [5]: 10 to 100 nM
IC50 [6]: < 10 nM

Compound: CCn1c(=O)c(-c2cc(NC(=O)Nc3ccccc3)c(F)cc2Br)cc2cnc(NCCOC)cc21 [Example 51, 1-(4-bromo-5-(1-ethyl-7-(2-methoxyethylamino)-2-oxo-1,2-dihydro-1,6-naphthyridin-3-yl)-2-fluorophenyl)-3-phenylurea]
IC50 [1]: 10 to 100 nM
IC50 [3]: 100 to 1000 nM
IC50 [4]: > 1000 nM
IC50 [5]: 100 to 1000 nM
IC50 [6]: 10 to 100 nM

Other lines, results leading:

IC50 [1]: 10 to 100 nM
IC50 [2]: < 10 nM
IC50 [3]: < 10 nM
IC50 [4]: < 10 nM
IC50 [5]: < 10 nM
IC50 [6]: 10 to 100 nM
Compound: CCn1c(=O)c(-c2cc(NC(=O)Nc3cc(F)cc(F)c3)c(F)cc2Cl)cc2cnc(NC(C)=O)cc21 [Example 67, N-(3-(2-chloro-5-(3-(3,5-difluorophenyl)ureido)-4-fluorophenyl)-1-ethyl-2-oxo-1,2-dihydro-1,6-naphthyridin-7-yl)acetamide]

IC50 [1]: 10 to 100 nM
IC50 [2]: 10 to 100 nM
IC50 [3]: 100 to 1000 nM
IC50 [4]: < 10 nM
IC50 [5]: 100 to 1000 nM
IC50 [6]: < 10 nM
Compound: CCn1c(=O)c(-c2cc(NC(=O)Nc3ccccc3)c(F)cc2Br)cc2cnc(N)cc21 [Example 57, 1-(5-(7-amino-1-ethyl-2-oxo-1,2-dihydro-1,6-naphthyridin-3-yl)-4-bromo-2-fluorophenyl)-3-phenylurea]

IC50 [1]: 10 to 100 nM
IC50 [2]: 10 to 100 nM
IC50 [3]: < 10 nM
IC50 [4]: 10 to 100 nM
IC50 [5]: 10 to 100 nM
IC50 [6]: 10 to 100 nM
Compound: CCn1c(=O)c(-c2cc(NC(=O)Nc3ccccc3)c(F)cc2Cl)cc2cnc(NC(=O)OC)cc21 [Example 73, methyl (3-(2-chloro-4-fluoro-5-(3-phenylureido)phenyl)-1-ethyl-2-oxo-1,2-dihydro-1,6-naphthyridin-7-yl)carbamate]

IC50 [1]: 100 to 1000 nM
IC50 [2]: 10 to 100 nM
IC50 [3]: 100 to 1000 nM
IC50 [4]: 10 to 100 nM
IC50 [5]: 10 to 100 nM
IC50 [6]: < 10 nM
Compound: CCn1c(=O)c(-c2cc(NC(=O)Nc3ccc(F)c(CN4CCN(C)CC4)c3)c(F)cc2Cl)cc2cnc(NC)cc21 [Example 87, 1-(4-chloro-5-(1-ethyl-7-(methylamino)-2-oxo-1,2-dihydro-1,6-naphthyridin-3-yl)-2-fluorophenyl)-3-(4-fluoro-3-((4-methylpiperazin-1-yl)methyl)phenyl)urea]

IC50 [1]: 10 to 100 nM
IC50 [2]: 10 to 100 nM
IC50 [3]: 10 to 100 nM
IC50 [4]: 100 to 1000 nM
IC50 [5]: > 1000 nM
IC50 [6]: < 10 nM
Compound: CCn1c(=O)c(-c2cc(NC(=O)Nc3cc(F)cc(F)c3)c(F)cc2C)cc2cnc(NC)cc21 [Example 60, 1-(3,5-difluorophenyl)-3-(5-(1-ethyl-7-(methylamino)-2-oxo-1,2-dihydro-1,6-naphthyridin-3-yl)-2-fluoro-4-methylphenyl)urea]

IC50 [1]: 10 to 100 nM
IC50 [2]: < 10 nM
IC50 [3]: 10 to 100 nM
IC50 [4]: 10 to 100 nM
IC50 [5]: > 1000 nM
IC50 [6]: 10 to 100 nM
Compound: CCn1c(=O)c(-c2cc(NC(=O)Nc3cc(F)cc(F)c3)c(F)cc2Cl)cc2cnc(NC)cc21 [Example 55, 1-(4-chloro-5-(1-ethyl-7-(methylamino)-2-oxo-1,2-dihydro-1,6-naphthyridin-3-yl)-2-fluorophenyl)-3-(3,5-difluorophenyl)urea]

IC50 [1]: 10 to 100 nM
IC50 [2]: 10 to 100 nM
IC50 [3]: 10 to 100 nM
IC50 [4]: 10 to 100 nM
IC50 [5]: 10 to 100 nM
IC50 [6]: < 10 nM
Compound: CCn1c(=O)c(-c2cc(NC(=O)Nc3ccccc3)c(F)cc2Cl)cc2cnc(NC(=O)N3CC(N(C)C)C3)cc21 [Example 102, N-(3-(2-chloro-4-fluoro-5-(3-phenylureido)phenyl)-1-ethyl-2-oxo-1,2-dihydro-1,6-naphthyridin-7-yl)-3-(dimethylamino)azetidine-1-carboxamide]

IC50 [1]: 10 to 100 nM
IC50 [2]: 10 to 100 nM
IC50 [3]: < 10 nM
IC50 [4]: < 10 nM
IC50 [5]: 10 to 100 nM
IC50 [6]: < 10 nM
Compound: CCn1c(=O)c(-c2cc(NC(=O)Nc3ccccc3)c(F)cc2Cl)cc2cnc(NC(=O)N(C)C)cc21 [Example 70, 3-(3-(2-chloro-4-fluoro-5-(3-phenylureido)phenyl)-1-ethyl-2-oxo-1,2-dihydro-1,6-naphthyridin-7-yl)-1,1-dimethylurea]
